Measurements from patent US12404283B2, “c-MYC mRNA translation modulators and uses thereof in the treatment of cancer” (Anima Biotech Inc., priority 2022, dated 2025).

Test system: c-Myc
Assay: c-Myc immunofluorescence assay
Format: cell-based, human
Conditions: A549 cells, 24 hours treatment, anti-c-Myc immunofluorescence
Summary of the method: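 A549 cells grown 48 h, exposed 24 h to rising compound concentrations, then fixed, permeabilised and stained for c-Myc plus DAPI. Nuclear-segmented c-Myc fluorescence quantified by high-content imaging at 20×; EC50 from logistic dose–response fits.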

| Structure (SMILES) | Myc Efficacy (−LogEC50) |
| --- | --- |
| C#CCCC1(CCN(CC)CCCNC(=O)c2ccc3c(c2)sc2nc(-c4ccc(C(=O)NC)cc4)cn23)N=N1 [compound 323, N-(3-((2-(3-(but-3-yn-1-yl)-3H-diazirin-3-yl)ethyl)(ethyl)amino)propyl)-2-(4-(methylcarbamoyl)phenyl) benzo[d]imidazo[2,1-b]thiazole-7-carboxamide] | +++ (+++ ≥6) |
| C#CCCC1(CCN2CC[C@H](CNC(=O)c3ccc4c(c3)sc3nc(-c5ccc(C)cc5)cn34)C2)N=N1 [compound 324, (R)-N-((1-(2-(3-(but-3-yn-1-yl)-3H-diazirin-3-yl)ethyl)pyrrolidin-3-yl)methyl)-2-(p-tolyl)benzo[d]imidazo[2,1-b]thiazole-7-carboxamide] | ++ (++ ≥5 and <6) |
| C#CCCC1(CCN2CC[C@@H](CNC(=O)c3ccc4c(c3)sc3nc(-c5ccc(C)cc5)cn34)C2)N=N1 [compound 325, (S)-N-((1-(2-(3-(but-3-yn-1-yl)-3H-diazirin-3-yl)ethyl)pyrrolidin-3-yl)methyl)-2-(p-tolyl)benzo[d]imidazo[2,1-b]thiazole-7-carboxamide] | ++ (++ ≥5 and <6) |
| C#CCCC1(CCOc2ccccc2-c2cn3c(n2)sc2cc(C(=O)NCCCN4CCCCC4)ccc23)N=N1 [compound 326, 2-(2-(2-(3-(but-3-yn-1-yl)-3H-diazirin-3-yl)ethoxy)phenyl)-N-(3-(piperidin-1-yl)propyl)benzo[d]imidazo [2,1-b]thiazole-7-carboxamide] | ++ (++ ≥5 and <6) |
| C#CCCC1(CCOc2cccc(-c3cn4c(n3)sc3cc(C(=O)NCCCN(CC)CC)ccc34)c2)N=N1 [compound 327, 2-(3-(2-(3-(but-3-yn-1-yl)-3H-diazirin-3-yl)ethoxy)phenyl)-N-(3-(diethylamino)propyl)benzo [d]imidazo[2,1-b]thiazole-7-carboxamide] | + (+ >3 and <5) |
| CCN(CC)CCCNC(=O)c1ccc2c(c1)sc1nc(-c3ccc(C(=O)NC)cc3)nn12 [compound 328, N-(3-(diethylamino)propyl)-2-(4-(methylcarbamoyl)phenyl) benzo[4,5]thiazolo[3,2-b][1,2,4]triazole-6-carboxamide] | ++ (++ ≥5 and <6) |
| CNC(=O)c1ccc(-c2cn3c(n2)sc2cc(C(=O)N(C)CCCN4CCCCC4)ccc23)cc1 [compound 329, N-methyl-2-(4-(methylcarbamoyl)phenyl)-N-(3-(piperidin-1-yl)propyl)benzo[d]imidazo [2,1-b]thiazole-7-carboxamide] | + (+ >3 and <5) |
| CCN(CC)CCCNC(=O)c1ccc2c(c1)sc1nc(-c3ccncn3)cn12 [compound 330, N-(3-(diethylamino)propyl)-2-(pyrimidin-4-yl)benzo[d]imidazo[2,1-b]thiazole-7-carboxamide] | + (+ >3 and <5) |
| CCN(CC)CCCNC(=O)c1ccc2c(c1)sc1nc(-c3ccc(CNC4CC4)cc3F)cn12 [compound 331, 2-(4-((cyclopropylamino)methyl)-2-fluorophenyl)-N-(3-(diethylamino)propyl)benzo [d]imidazo[2,1-b]thiazole-7-carboxamide] | +++ (+++ ≥6) |
| CCN(CC)CCCN(C)C(=O)c1ccc2c(c1)sc1nc(-c3ccc(C(=O)NC)cc3F)cn12 [compound 333, N-(3-(diethylamino)propyl)-2-(2-fluoro-4-(methylcarbamoyl)phenyl)-N-methylbenzo[d]imidazo[2,1-b]thiazole-7-carboxamide] | + (+ >3 and <5) |
| CCN(CC)CCCNC(=O)c1ccc2c(c1)sc1nc(-c3cc(F)c(CNC4CC4)cc3F)cn12 [compound 334, 2-(4-((cyclopropylamino)methyl)-2,5-difluorophenyl)-N-(3-(diethylamino)propyl)benzo [d]imidazo[2,1-b]thiazole-7-carboxamide] | ++ (++ ≥5 and <6) |
